According to patent US10435399B2, “HDAC6 inhibitory heterocyclic compound” (TAKEDA PHARMACEUTICAL COMPANY LIMITED, priority 2017, dated 2019):

molecular target: T1, HDAC6 enzyme (Homo sapiens, UniProt Q9UBN7); assay: HDAC6 enzyme inhibitory activity (HDAC-Glo I/II Assay kit); assay type: biochemical; conditions: 10 μM; wells without enzyme = 100% inhibition; read-out: HDAC6 inhibitory rate (%) (10 μM)
T1 construct: transducing full length HDAC6 gene into Sf-9 insect cells; GST; purchased SignalChem; host or cells: Sf-9 insect cells
T1 sequence (Q9UBN7 1-1215): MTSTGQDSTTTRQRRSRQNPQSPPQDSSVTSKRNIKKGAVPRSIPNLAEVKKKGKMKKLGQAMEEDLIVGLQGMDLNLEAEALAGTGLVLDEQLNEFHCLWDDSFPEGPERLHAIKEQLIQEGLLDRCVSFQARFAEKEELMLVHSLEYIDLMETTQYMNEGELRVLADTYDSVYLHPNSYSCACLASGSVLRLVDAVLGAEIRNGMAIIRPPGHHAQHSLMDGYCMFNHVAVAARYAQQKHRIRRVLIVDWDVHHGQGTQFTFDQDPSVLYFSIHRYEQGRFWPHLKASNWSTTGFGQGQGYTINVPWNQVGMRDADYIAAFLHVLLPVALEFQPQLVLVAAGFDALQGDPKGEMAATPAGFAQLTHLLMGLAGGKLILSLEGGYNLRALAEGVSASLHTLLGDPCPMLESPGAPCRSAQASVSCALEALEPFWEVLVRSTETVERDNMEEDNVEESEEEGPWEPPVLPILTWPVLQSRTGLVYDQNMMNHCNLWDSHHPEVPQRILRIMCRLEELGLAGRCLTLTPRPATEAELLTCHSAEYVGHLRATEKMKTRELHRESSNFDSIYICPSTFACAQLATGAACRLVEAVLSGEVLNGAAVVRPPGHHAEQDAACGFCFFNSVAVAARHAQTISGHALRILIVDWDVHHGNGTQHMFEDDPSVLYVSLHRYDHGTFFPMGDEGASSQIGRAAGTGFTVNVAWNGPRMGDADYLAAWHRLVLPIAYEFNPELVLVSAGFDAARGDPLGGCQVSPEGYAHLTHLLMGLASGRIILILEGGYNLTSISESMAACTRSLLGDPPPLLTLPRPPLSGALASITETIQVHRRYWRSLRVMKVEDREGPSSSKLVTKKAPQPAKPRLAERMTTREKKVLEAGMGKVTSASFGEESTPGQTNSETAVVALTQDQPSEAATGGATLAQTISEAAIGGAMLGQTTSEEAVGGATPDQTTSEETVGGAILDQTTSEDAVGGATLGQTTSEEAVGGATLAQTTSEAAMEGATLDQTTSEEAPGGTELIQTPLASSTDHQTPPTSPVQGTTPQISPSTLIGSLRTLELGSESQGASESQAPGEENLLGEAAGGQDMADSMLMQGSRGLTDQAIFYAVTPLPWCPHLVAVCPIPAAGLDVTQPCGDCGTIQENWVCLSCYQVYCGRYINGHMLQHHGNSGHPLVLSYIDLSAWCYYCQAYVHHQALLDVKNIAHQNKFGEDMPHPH
Procedure, shortened: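 Luminescent HDAC-Glo I/II readout after 20 min room-temperature reaction with substrate-developer, following 60 min compound–enzyme preincubation. Enzyme: full-length HDAC6 from Sf-9 cells, GST-purified; buffer 24 mM Tris-HCl pH 7.5, 0.01% Tween-20, glutathione, salts. Wells lacking enzyme define 100% inhibition.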

SMILES | inhibition at 10 µM [%]
Cc1ccccc1-c1ccccc1N1Cc2ccc(-c3nnc(C(F)F)o3)cc2C1=O [Example 311, 6-(5-(difluoromethyl)-1,3,4-oxadiazol-2-yl)-2-(2′-methyl-biphenyl-2-yl)isoindolin-1-one] | 99
Cc1cccc(-c2ccccc2N2Cc3ccc(-c4nnc(C(F)F)o4)cc3C2=O)c1 [Example 312, 6-(5-(difluoromethyl)-1,3,4-oxadiazol-2-yl)-2-(3′-methyl-biphenyl-2-yl)isoindolin-1-one] | 96
Cc1ccc(-c2ccccc2N2Cc3ccc(-c4nnc(C(F)F)o4)cc3C2=O)cc1 [Example 313, 6-(5-(difluoromethyl)-1,3,4-oxadiazol-2-yl)-2-(4′-methyl-biphenyl-2-yl)isoindolin-1-one] | 98
CS(=O)(=O)c1cncc(-c2ccccc2N2Cc3ccc(-c4nnc(C(F)F)o4)cc3C2=O)c1 [Example 314, 6-(5-(difluoromethyl)-1,3,4-oxadiazol-2-yl)-2-(2-(5-(methylsulfonyl)pyridin-3-yl)phenyl)isoindolin-1-one] | 101
O=C1c2cc(-c3nnc(C(F)F)o3)ccc2CN1c1ccccc1-c1cccc(OCC(F)(F)F)c1 [Example 315, 6-(5-(difluoromethyl)-1,3,4-oxadiazol-2-yl)-2-(3′-(2,2,2-trifluoroethoxy)biphenyl-2-yl)isoindolin-1-one] | 98
N#CC1(c2ccc(-c3ccccc3N3Cc4ccc(-c5nnc(C(F)F)o5)cc4C3=O)cc2)CC1 [Example 316, 1-(2′-(6-(5-(difluoromethyl)-1,3,4-oxadiazol-2-yl)-1-oxo-1,3-dihydro-2H-isoindol-2-yl)-biphenyl-4-yl)cyclopropane-carbonitrile] | 92
COCCOc1ccccc1-c1ccccc1N1Cc2ccc(-c3nnc(C(F)F)o3)cc2C1=O [Example 317, 6-(5-(difluoromethyl)-1,3,4-oxadiazol-2-yl)-2-(2′-(2-methoxyethoxy)biphenyl-2-yl)isoindolin-1-one] | 97
O=C1c2cc(-c3nnc(C(F)F)o3)ccc2CN1c1ccccc1-c1cnn(C(F)F)c1 [Example 318, 6-(5-(difluoromethyl)-1,3,4-oxadiazol-2-yl)-2-(2-(1-(difluoromethyl)-1H-pyrazol-4-yl)phenyl)isoindolin-1-one] | 98
O=C1c2cc(-c3nnc(C(F)F)o3)ccc2CN1c1ccccc1-c1cnn(C2CCOCC2)c1 [Example 319, 6-(5-(difluoromethyl)-1,3,4-oxadiazol-2-yl)-2-(2-(1-(tetrahydro-2H-pyran-4-yl)-1H-pyrazol-4-yl)phenyl)-isoindolin-1-one] | 86
Cn1nc(C(F)(F)F)cc1-c1ccccc1N1Cc2ccc(-c3nnc(C(F)F)o3)cc2C1=O [Example 320, 6-(5-(difluoromethyl)-1,3,4-oxadiazol-2-yl)-2-(2-(1-methyl-3-(trifluoromethyl)-1H-pyrazol-5-yl)phenyl)-isoindolin-1-one] | 99
COCCOc1ccc(-c2ccccc2N2Cc3ccc(-c4nnc(C(F)F)o4)cc3C2=O)cc1 [Example 321, 6-(5-(difluoromethyl)-1,3,4-oxadiazol-2-yl)-2-(4′-(2-methoxyethoxy)biphenyl-2-yl)isoindolin-1-one] | 98
O=C1c2cc(-c3nnc(C(F)F)o3)ccc2CN1c1ccccc1-c1cnc(OCC(F)(F)F)nc1 [Example 322, 6-(5-(difluoromethyl)-1,3,4-oxadiazol-2-yl)-2-(2-(2-(2,2,2-trifluoroethoxy)-pyrimidin-5-yl)phenyl)-isoindolin-1-one] | 23
O=C1c2cc(-c3nnc(C(F)F)o3)ccc2CN1c1ccccc1-c1cnn(Cc2ccccn2)c1 [Example 323, 6-(5-(difluoromethyl)-1,3,4-oxadiazol-2-yl)-2-(2-(1-(pyridin-2-ylmethyl)-1H-pyrazol-4-yl)phenyl)-isoindolin-1-one] | 97
N#CCOc1cccc(-c2ccccc2N2Cc3ccc(-c4nnc(C(F)F)o4)cc3C2=O)c1 [Example 324, ((2′-(6-(5-(difluoromethyl)-1,3,4-oxadiazol-2-yl)-1-oxo-1,3-dihydro-2H-isoindol-2-yl)biphenyl-3-yl)oxy)-acetonitrile] | 97
O=C(c1cccc(-c2ccccc2N2Cc3ccc(-c4nnc(C(F)F)o4)cc3C2=O)c1)N1CCCC1 [Example 325, 6-(5-(difluoromethyl)-1,3,4-oxadiazol-2-yl)-2-(3′-(pyrrolidin-1-ylcarbonyl)-biphenyl-2-yl)isoindolin-1-one] | 100
O=C1c2cc(-c3nnc(C(F)F)o3)cc(F)c2CN1C[C@@H]1CCCN1 [Example 326, 6-(5-(difluoromethyl)-1,3,4-oxadiazol-2-yl)-4-fluoro-2-((2S)-pyrrolidin-2-ylmethyl)-isoindolin-1-one] | 86
O=C1c2cc(-c3nnc(C(F)F)o3)cnc2CN1Cc1cccc(F)c1F [Example 327, 6-(2,3-difluorobenzyl)-3-(5-(difluoromethyl)-1,3,4-oxadiazol-2-yl)-6,7-dihydro-5H-pyrrolo[3,4-b]pyridin-5-one] | 99
O=C1c2cc(-c3nnc(C(F)F)o3)cnc2CN1Cc1ccc(F)cc1 [Example 328, 3-(5-(difluoromethyl)-1,3,4-oxadiazol-2-yl)-6-(4-fluorobenzyl)-6,7-dihydro-5H-pyrrolo[3,4-b]pyridin-5-one] | 98
O=C1c2cc(-c3nnc(C(F)F)o3)cnc2CN1Cc1c(F)cccc1F [Example 329, 6-(2,6-difluorobenzyl)-3-(5-(difluoromethyl)-1,3,4-oxadiazol-2-yl)-6,7-dihydro-5H-pyrrolo[3,4-b]pyridin-5-one] | 99
O=C1c2cc(-c3nnc(C(F)F)o3)ccc2CN1c1ccccc1-n1cccn1 [Example 330, 6-(5-(difluoromethyl)-1,3,4-oxadiazol-2-yl)-2-(2-(1H-pyrazol-1-yl)phenyl)-isoindolin-1-one] | 99
CC(C)(C)OC(=O)N1CC(F)(F)C[C@H]1CN1Cc2c(F)cc(-c3nnc(C(F)F)o3)cc2C1=O [Example 331, tert-butyl (2S)-2-((6-(5-(difluoromethyl)-1,3,4-oxadiazol-2-yl)-4-fluoro-1-oxo-1,3-dihydro-2H-isoindol-2-yl)methyl)-4,4-difluoropyrrolidine-1-carboxylate] | 97
COc1ccc(CN2Cc3ncc(-c4nnc(C(F)F)o4)cc3C2=O)cc1 [Example 332, 3-(5-(difluoromethyl)-1,3,4-oxadiazol-2-yl)-6-(4-methoxybenzyl)-6,7-dihydro-5H-pyrrolo[3,4-b]pyridin-5-one] | 99
O=C1c2cc(-c3nnc(C(F)F)o3)cnc2CN1Cc1ccc(Cl)cc1 [Example 333, 6-(4-chlorobenzyl)-3-(5-(difluoromethyl)-1,3,4-oxadiazol-2-yl)-6,7-dihydro-5H-pyrrolo[3,4-b]pyridin-5-one] | 97
O=C1c2cc(-c3nnc(C(F)F)o3)cnc2CN1Cc1ccc(C(F)(F)F)cc1 [Example 334, 3-(5-(difluoromethyl)-1,3,4-oxadiazol-2-yl)-6-(4-(trifluoromethyl)benzyl)-6,7-dihydro-5H-pyrrolo[3,4-b]pyridin-5-one] | 93
O=C1c2cc(-c3nnc(C(F)F)o3)cnc2CN1Cc1ccc(OC(F)F)cc1 [Example 335] | 101
O=C1c2cc(-c3nnc(C(F)F)o3)cc(F)c2CN1C[C@@H]1CCCN1S(=O)(=O)C1CC1 [Example 336, 2-(((2S)-1-(cyclopropyl-sulfonyl)pyrrolidin-2-yl)methyl)-6-(5-(difluoromethyl)-1,3,4-oxadiazol-2-yl)-4-fluoroisoindolin-1-one] | 102
O=C1c2cc(-c3nnc(C(F)F)o3)ccc2CN1[C@@H]1CCCC[C@H]1N(C(=O)C(F)F)c1ccccn1 [Example 337, N-((1R,2R)-2-(6-(5-(difluoromethyl)-1,3,4-oxadiazol-2-yl)-1-oxo-1,3-dihydro-2H-isoindol-2-yl)-cyclohexyl)-2,2-difluoro-N-(pyridin-2-yl)acetamide] | 101
